In ChEMBL document CHEMBL1201862, “PubChem BioAssay data set” (2004):
Active and inactive are the calls of the source. Rule as the data show it, for most assays here: actives have a measured EC50 and inactives only a lower limit.

Assays:
[1] = NIH-3T3 fibroblast cytotoxicity, dose response, cytotoxicity control, cell-based, fluorescence, Alamar Blue, secondary assay (AID 2327); type: functional;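 also: NIH-3T3 mouse fibroblasts cultured with fluconazole at 8 µg/mL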
[2] = fluconazole-exposed Candida albicans growth modulators – fluorescence, retest, confirmation (AID 2467); type: functional, cell-based
[3] = Trypanosoma cruzi growth suppression in host cells – NIH3T3 host cells, beta-gal luminescence, confirmation (AID 2044); type: functional, cell-based;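 also: intracellular parasites grown in NIH/3T3 mouse fibroblasts as host cells; luminescent beta-galactosidase reporter signal from transgenic T. cruzi replicating inside host cells; inhibitors lower the luminescence signal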
[4] = NIH3T3 cell viability loss – ATP luminescence, mouse fibroblasts, counter-screen, dose response (AID 2010); type: functional, cell-based;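 also: cells exposed to compound for about 90 hours before reading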
[5] = Luminescence Cell-Based Dose Confirmation HTS to Identify Inhibitors of Platelet Dense Granule Release. [Related pubchem assays: 1663 (Primary HTS), 1678 (Summary of Project)]; type: functional
[6] = target: Luciferin 4-monooxygenase (Photinus pyralis, UniProt P08659); experiment: inhibition of purified Photinus pyralis luciferase – biochemical, luminescence, dose response (AID 1891)
Protein RecA = target: T1, Protein RecA (Mycobacterium tuberculosis, UniProt P9WHJ3); experiment: Fluorescence Cell-Free Homogeneous Dose Retest to Identify Inhibitors of RecA-Intein Splicing Activity. [Related pubchem assays (depositor defined):AID2097, AID2223, AID489010, AID492950]; type: functional
T1 sequence (P9WHJ3 whole entry): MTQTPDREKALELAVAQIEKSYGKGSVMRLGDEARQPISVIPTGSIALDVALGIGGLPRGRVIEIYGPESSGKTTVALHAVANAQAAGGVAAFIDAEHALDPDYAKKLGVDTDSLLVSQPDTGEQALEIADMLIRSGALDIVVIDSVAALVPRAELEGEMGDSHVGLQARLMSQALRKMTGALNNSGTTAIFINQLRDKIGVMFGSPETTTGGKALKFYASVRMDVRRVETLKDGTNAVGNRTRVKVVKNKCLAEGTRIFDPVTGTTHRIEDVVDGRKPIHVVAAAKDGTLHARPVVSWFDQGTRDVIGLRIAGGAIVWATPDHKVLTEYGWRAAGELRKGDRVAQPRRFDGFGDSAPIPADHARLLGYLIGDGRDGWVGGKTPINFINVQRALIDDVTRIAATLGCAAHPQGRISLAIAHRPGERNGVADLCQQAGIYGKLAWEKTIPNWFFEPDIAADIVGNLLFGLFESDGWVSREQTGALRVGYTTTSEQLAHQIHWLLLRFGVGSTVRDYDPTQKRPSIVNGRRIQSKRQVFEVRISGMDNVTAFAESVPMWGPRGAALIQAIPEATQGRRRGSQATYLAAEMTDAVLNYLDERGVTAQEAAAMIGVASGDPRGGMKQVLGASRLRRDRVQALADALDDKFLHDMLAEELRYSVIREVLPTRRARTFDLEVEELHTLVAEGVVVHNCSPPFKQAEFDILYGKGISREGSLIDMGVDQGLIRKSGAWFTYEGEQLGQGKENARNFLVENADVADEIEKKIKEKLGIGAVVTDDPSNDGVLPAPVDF

[7] = target: T2, Replicative DNA helicase DnaB (Mycobacterium tuberculosis, UniProt P9WMR3); experiment: DnaB intein splicing inhibitors, dose response, biochemical, cell-free fluorescence (AID 449749); type: functional
T2 sequence (P9WMR3 whole entry): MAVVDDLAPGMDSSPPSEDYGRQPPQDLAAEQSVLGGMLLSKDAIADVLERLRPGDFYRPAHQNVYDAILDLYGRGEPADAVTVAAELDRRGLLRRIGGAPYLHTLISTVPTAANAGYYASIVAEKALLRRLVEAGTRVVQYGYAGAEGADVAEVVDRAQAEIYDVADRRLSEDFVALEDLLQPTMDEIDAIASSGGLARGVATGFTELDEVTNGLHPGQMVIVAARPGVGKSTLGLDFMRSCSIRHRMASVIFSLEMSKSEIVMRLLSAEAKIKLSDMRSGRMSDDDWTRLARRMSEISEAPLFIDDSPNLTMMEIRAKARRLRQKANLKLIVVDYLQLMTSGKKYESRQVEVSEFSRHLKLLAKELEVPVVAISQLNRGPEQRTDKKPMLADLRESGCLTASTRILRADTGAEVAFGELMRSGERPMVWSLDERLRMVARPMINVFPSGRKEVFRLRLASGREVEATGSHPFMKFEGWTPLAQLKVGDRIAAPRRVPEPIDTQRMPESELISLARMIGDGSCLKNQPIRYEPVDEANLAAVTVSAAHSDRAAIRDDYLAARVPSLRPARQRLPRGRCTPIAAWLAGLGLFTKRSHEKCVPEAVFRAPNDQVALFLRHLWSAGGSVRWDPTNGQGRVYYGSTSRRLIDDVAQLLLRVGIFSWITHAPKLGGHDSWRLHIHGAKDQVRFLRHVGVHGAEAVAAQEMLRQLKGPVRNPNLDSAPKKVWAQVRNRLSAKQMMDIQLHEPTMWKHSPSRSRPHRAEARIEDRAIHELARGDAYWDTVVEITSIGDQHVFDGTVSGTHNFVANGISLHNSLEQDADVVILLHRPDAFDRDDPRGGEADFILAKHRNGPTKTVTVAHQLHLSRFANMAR

Paired box protein Pax-8 = Paired box protein Pax-8 (Homo sapiens, UniProt Q06710); experiment: PAX8 transcriptional activity inhibition in RMG-I – RMG-I cells, luciferase, cherry-pick, dose response (AID 687027); type: functional, cell-based;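 also: luciferase reporter driven by Pax8 target thyroperoxidase promoter measured by SteadyGlo luminescence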
[8] = target: T3, Ubiquitin-conjugating enzyme E2 N (Homo sapiens, UniProt P61088); type: functional;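 also: Dose-response confirmation in a TR-FRET assay detecting UBC13-driven polyubiquitin chain formation, inhibition measured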
T3 sequence (P61088 whole entry): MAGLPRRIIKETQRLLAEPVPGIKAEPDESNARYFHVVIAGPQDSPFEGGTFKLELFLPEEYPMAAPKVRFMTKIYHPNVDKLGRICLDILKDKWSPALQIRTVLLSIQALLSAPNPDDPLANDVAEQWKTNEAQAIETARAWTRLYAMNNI

[9] = reduction of Shn3 3'UTR-driven luciferase in osteoblasts – cell-based, Clone20 osteoblasts, firefly luciferase, cherry-picked, dose response (AID 624132); type: functional;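 also: firefly luciferase luminescence from reporter carrying the Shn3 3'UTR in osteoblasts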
[10] = Luminescence Cell-Based Dose Retest to Confirm Inhibitors of Cancer Stem Cells. [Related pubchem assays (depositor defined):AID2717, AID2721]; type: functional; details: Homo sapiens
[11] = target: T4, Corticotropin-releasing factor receptor 2/Corticotropin-releasing factor-binding protein (Homo sapiens, UniProt P24387+Q13324); experiment: activators of CRF receptor 2 with binding protein – uHTS hits, confirmation (AID 602473); type: functional; details: read-out: EC50_Mean
T4 sequence (Q13324 whole entry): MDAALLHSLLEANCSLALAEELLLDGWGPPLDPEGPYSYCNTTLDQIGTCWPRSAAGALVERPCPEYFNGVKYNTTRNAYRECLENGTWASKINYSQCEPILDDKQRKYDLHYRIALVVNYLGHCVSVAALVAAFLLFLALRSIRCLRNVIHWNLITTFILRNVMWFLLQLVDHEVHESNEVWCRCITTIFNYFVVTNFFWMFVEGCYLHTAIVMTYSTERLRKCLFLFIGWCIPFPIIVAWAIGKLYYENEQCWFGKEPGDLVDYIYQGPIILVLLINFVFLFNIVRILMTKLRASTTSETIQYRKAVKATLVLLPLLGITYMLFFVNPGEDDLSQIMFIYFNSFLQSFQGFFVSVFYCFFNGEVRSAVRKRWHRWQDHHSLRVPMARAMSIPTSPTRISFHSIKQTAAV
T4 sequence (P24387 whole entry): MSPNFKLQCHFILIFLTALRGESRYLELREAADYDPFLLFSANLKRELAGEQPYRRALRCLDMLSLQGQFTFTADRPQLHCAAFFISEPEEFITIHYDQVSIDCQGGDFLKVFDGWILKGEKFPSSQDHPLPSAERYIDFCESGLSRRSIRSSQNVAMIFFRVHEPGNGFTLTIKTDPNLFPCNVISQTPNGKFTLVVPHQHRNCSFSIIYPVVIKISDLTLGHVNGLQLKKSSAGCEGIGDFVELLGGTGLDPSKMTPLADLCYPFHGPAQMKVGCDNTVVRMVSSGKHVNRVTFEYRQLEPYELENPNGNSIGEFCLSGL

[12] = HIV-1 AD8 envelope cell-cell fusion blockers – cherry-pick, dose response (AID 652062); type: functional, cell-based;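 also: luciferase signal from cell-cell fusion driven by HIV-1 clade B AD8 Env; potency is for inhibitors of fusion seen as a drop in luminescence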

Chain of Luciferin 4-monooxygenase (P08659 whole entry): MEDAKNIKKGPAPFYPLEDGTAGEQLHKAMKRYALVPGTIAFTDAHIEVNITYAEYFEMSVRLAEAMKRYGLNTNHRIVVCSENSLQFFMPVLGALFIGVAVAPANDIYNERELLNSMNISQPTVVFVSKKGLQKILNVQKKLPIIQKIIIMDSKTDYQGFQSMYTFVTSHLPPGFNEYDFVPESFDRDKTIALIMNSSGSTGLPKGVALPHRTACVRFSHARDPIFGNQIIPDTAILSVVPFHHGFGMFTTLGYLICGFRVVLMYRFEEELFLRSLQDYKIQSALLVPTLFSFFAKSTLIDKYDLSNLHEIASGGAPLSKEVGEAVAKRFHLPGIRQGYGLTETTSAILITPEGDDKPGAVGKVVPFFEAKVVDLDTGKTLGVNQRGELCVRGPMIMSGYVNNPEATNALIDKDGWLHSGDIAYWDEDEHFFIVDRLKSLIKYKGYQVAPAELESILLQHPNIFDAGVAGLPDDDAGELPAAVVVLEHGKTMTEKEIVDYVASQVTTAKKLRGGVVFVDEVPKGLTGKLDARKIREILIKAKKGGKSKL
Chain of Paired box protein Pax-8 (Q06710 whole entry): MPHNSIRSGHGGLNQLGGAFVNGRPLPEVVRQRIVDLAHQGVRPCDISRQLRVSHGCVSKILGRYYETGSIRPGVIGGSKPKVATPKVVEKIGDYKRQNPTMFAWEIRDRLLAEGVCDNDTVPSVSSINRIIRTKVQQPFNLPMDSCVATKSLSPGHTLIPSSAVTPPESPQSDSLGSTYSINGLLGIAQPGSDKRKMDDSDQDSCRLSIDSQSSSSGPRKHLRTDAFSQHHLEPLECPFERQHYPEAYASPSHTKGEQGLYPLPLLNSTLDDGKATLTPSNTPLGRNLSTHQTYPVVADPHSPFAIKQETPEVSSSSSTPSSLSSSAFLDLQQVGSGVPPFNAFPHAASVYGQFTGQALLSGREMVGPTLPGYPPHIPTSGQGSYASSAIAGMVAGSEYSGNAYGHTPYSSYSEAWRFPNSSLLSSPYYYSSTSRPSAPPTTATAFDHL

## C/[N+]([O-])=C\c1ccc([N+](=O)[O-])o1
[1]
  EC50: > 160 µM (inactive)
[2]
  EC50: 0.885 µM (active)
[3]
  EC50: 0.54 µM (active)
[4]
  EC50: > 60 µM (not active)

## O=C(Nc1ccc(C(=O)N2CCN(c3ccc(Cl)cc3)CC2)cc1)C1=CSCCO1
[5]
  EC50: > 112 µM (not active)
[6]
  EC50: 31.2 µM (active)

## COc1ccc(C(=O)n2nnc3ccccc32)cc1Br
Protein RecA
  EC50: 30 µM (active)
[7]
  AC50: 24.6 µM (active)

## CC[n+]1ccc2cc(OC)c(OC)cc2c1Cc1ccc(OC)c(OC)c1
Protein RecA
  EC50: > 380 µM (inactive)
[7]
  AC50: > 120 µM (inactive)

## Cc1ccc2nc(Cl)c3nnnn3c2c1
[1]
  EC50: 4.94 µM (inconclusive)
[2]
  EC50: 0.646 µM (active)

## CC1(C)CC(=O)C=C(Nc2ccc3c(c2)OCCO3)C1
[5]
  EC50: 11 µM (active)
[6]
  EC50: > 112 µM (not active)

## CCN(CC)CC(=O)n1c2c(c3ccccc31)CCCC2
[5]
  EC50: > 112 µM (not active)
[6]
  EC50: > 112 µM (not active)

## COC(=O)C1=C(c2ccc(F)cc2OCc2ccccc2)C[C@@H]2CC[C@H]1N2C(=O)NCc1ccc(C)cc1
Paired box protein Pax-8
  AC50: 15.1 µM (active)

## Cn1c(SCC(=O)NCC2CCCO2)ncc(C(=O)Nc2ccccc2)c1=O (centres undefined)
Protein RecA
  EC50: 3.38 µM (active)
[7]
  AC50: 28 µM (active)

## Oc1ccc(C2=NN=C(NCc3ccc4c(c3)OCO4)SC2)c(O)c1
[8]
  IC50: > 20 µM (inactive)

## O=C(CSc1cccc[n+]1[O-])CSc1cccc[n+]1[O-]
[1]
  EC50: > 160 µM (inactive)
[2]
  EC50: 3.9 µM (active)
[3]
  EC50: 6.09 µM (active)
[4]
  EC50: > 30 µM (not active)

## Cc1c(CCOC(=O)CC23CC4CC(CC(C4)C2)C3)sc[n+]1CC(=O)c1ccc(Br)cc1
[8]
  IC50: > 20 µM (inactive)
[9]
  AC50: 12.9 µM (active)
[10]
  AC50: 2.42 µM (active)

## O=S(=O)(Nc1ccc(-c2ccc(N3CCOCC3)nn2)cc1)c1ccc(Cl)c(Cl)c1
[5]
  EC50: > 112 µM (not active)
[6]
  EC50: 35.3 µM (active)

## COc1ccc(/C=C2/C(=O)N(c3cccc(F)c3)N=C2C)c(OC)c1
Protein RecA
  EC50: 44.6 µM (active)
[7]
  AC50: 4.14 µM (active)

## Oc1ccc2ccccc2c1CNc1ccccn1
[8]
  IC50: > 20 µM (inactive)

## COc1cc2c(cc1OC)C(c1c(Cl)cccc1Cl)NC(=O)C2 (centres undefined)
[11]
  EC50: 10.9 µM (active)

## COc1ccccc1NS(=O)(=O)c1cc(NC(=O)CCC(=O)c2cccs2)ccc1Cl
[1]
  EC50: 123 µM (active)
[2]
  EC50: 0.417 µM (active)

## COc1nc2ccccc2nc1OC
[5]
  EC50: > 112 µM (not active)
[6]
  EC50: > 112 µM (not active)

## Cc1cccc(OCC(=O)Oc2ccc(Cl)cc2)c1
Protein RecA
  EC50: 35.1 µM (active)
[7]
  AC50: 9.75 µM (active)

## CCN(C[C@H]1N[C@@](Cc2ccccc2)(C(=O)OC)[C@H]2C(=O)N(Cc3ccccc3)C(=O)[C@@H]12)C(=O)C1CCCCC1
[11]
  EC50: 5.33 µM (active)

## CC1=NN(C)C(=O)C1Cc1c(F)cccc1Cl (centres undefined)
Protein RecA
  EC50: 0.74 µM (active)
[7]
  AC50: 5.39 µM (active)

## CN(C)/C=N/c1nccc(-c2cccs2)n1
[11]
  EC50: > 53 µM (inactive)

## CN(C)Cc1cn(CC[C@@H]2CC[C@H](N)[C@H](CO)O2)nn1
[12]
  AC50: 22.9 µM (active)

## Cc1ccc(OCC(=O)N/N=C\c2c(C)[nH]n(-c3ccccc3)c2=O)c([N+](=O)[O-])c1
[1]
  EC50: > 150 µM (inactive)
[2]
  EC50: 6.77 µM (active)

## C/C(CC(=O)Nc1ccc(Cl)cn1)=N\NC(=O)Cc1cccs1
Protein RecA
  EC50: 5.12 µM (active)
[7]
  AC50: 30.5 µM (active)

## Nc1c(Cl)ncnc1N/N=C/c1cccc(O)c1
[5]
  EC50: 22 µM (active)
[6]
  EC50: 58.1 µM (active)

## Cc1ccc(-n2nc(C)c(/C=N/NC(=O)c3ccc([N+](=O)[O-])cc3)c2O)c(C)c1
[1]
  EC50: 11.7 µM (active)
[2]
  EC50: 1.71 µM (active)
Protein RecA
  EC50: 21.2 µM (active)
[7]
  AC50: 6.38 µM (active)
